# Assay results published in patent US20070134261A1, “Effectors of innate immunity” (priority 2001, published 2007).
# Values joined by “and” are separate entries in the source; they are usually repeats but may differ in a detail not shown here. Equal entries are not always repeated.
# System: human A549 epithelial cells
# Assay: Resgen Human cDNA arrays (PRHU03-S3) of A549 cells treated with peptide (Tables 21-26)
# Details: 50 μg/ml, 4 h
smiles,measurement,setting,value
CC[C@H](C)[C@H](N)C(=O)N[C@@H](CC(C)C)C(=O)N1CCC[C@H]1C(=O)N[C@@H](Cc1c[nH]c2ccccc12)C(=O)N[C@@H](CCCCN)C(=O)N[C@@H](Cc1c[nH]c2ccccc12)C(=O)N1CCC[C@H]1C(=O)N[C@@H](Cc1c[nH]c2ccccc12)C(=O)N[C@@H](Cc1c[nH]c2ccccc12)C(=O)N1CCC[C@H]1C(=O)N[C@@H](Cc1c[nH]c2ccccc12)C(=O)N[C@@H](CCCNC(=N)N)C(=O)N[C@@H](CCCNC(=N)N)C(N)=O [SEQ ID NO: 2],"Ratio Peptide:Unstimulated, catenin (cadherin-associated protein), delta 1",AA025276,1.2
same,"Ratio Peptide:Unstimulated, integrin, beta 3",AA037229,2.7
same,"Ratio Peptide:Unstimulated, Epstein-Barr virus induced polynucleotide 2",AA037376,1.6
same,"Ratio Peptide:Unstimulated, disintegrin and metalloproteinase domain 10",AA043347,1.5
same,"Ratio Peptide:Unstimulated, MAP kinase kinase kinase kinase 3",AA043537,0.45
same,"Ratio Peptide:Unstimulated, protein tyrosine phosphatase, receptor type, J",AA045326,3.6
same,"Ratio Peptide:Unstimulated, MAP kinase kinase kinase 12",AA053674,0.20
same,"Ratio Peptide:Unstimulated, integrin, alpha 7",AA055979,0.57
same,"Ratio Peptide:Unstimulated, leukocyte immunoglobulin-like receptor, subfamily B (with TM and ITIM domains), member 4",AA076350,0.75
same,"Ratio Peptide:Unstimulated, phospholipase A2 receptor 1",AA086038,2.8
same,"Ratio Peptide:Unstimulated, IL-8",AA102526,3.6
same,"Ratio Peptide:Unstimulated, cadherin 11, type 2, OB-cadherin (osteoblast)",AA136983,0.23
same,"Ratio Peptide:Unstimulated, TNF R superfamily, member 1B","AA150416, listed as ID 2",18 and 17.09
same,"Ratio Peptide:Unstimulated, MAP kinase 9",AA157286,0.57
same,"Ratio Peptide:Unstimulated, macrophage stimulating 1 R",AA173454,1.7
same,"Ratio Peptide:Unstimulated, killer cell lectin-like receptor subfamily C, member 2",AA190627,9.7
same,"Ratio Peptide:Unstimulated, TNF R superfamily, member 11b","AA194983, listed as ID 2",5.3 and 5.29
same,"Ratio Peptide:Unstimulated, disintegrin and metalloproteinase domain 8",AA279188,3.1
same,"Ratio Peptide:Unstimulated, BCL2-interacting killer (apoptosis-inducing)",AA291323,1.9
same,"Ratio Peptide:Unstimulated, disintegrin-like and metalloprotease with thrombosondin type 1 motif, 3",AA398492,0.32
same,"Ratio Peptide:Unstimulated, MAP kinase kinase kinase 4",AA402447,0.37
same,"Ratio Peptide:Unstimulated, prostaglandin E receptor 3 (subtype EP3)",AA406362,4.1
same,"Ratio Peptide:Unstimulated, MAP kinase kinase kinase kinase 4",AA417711,0.96
same,"Ratio Peptide:Unstimulated, MAP kinase 8 interacting protein 2",AA418293,0.07
same,"Ratio Peptide:Unstimulated, integrin, alpha 3 (antigen CD49C, alpha 3 subunit of VLA-3 receptor)",AA424695,0.8
same,"Ratio Peptide:Unstimulated, cadherin 3, type 1, P-cadherin (placental)",AA425217,0.43
same,"Ratio Peptide:Unstimulated, integrin, alpha E",AA425451,180
same,"Ratio Peptide:Unstimulated, formyl peptide receptor 1",AA425767,3.1
same,"Ratio Peptide:Unstimulated, MAP kinase kinase 2",AA425826,1.20
same,"Ratio Peptide:Unstimulated, cytokine inducible SH2-containing protein",AA427521,33
same,"Ratio Peptide:Unstimulated, integrin, beta 5",AA434397,0.32
same,"Ratio Peptide:Unstimulated, protein tyrosine phosphatase, non-receptor type 9",AA434420,3.5
same,"Ratio Peptide:Unstimulated, protein tyrosine phosphatase, non-receptor type 12",AA446259,2.3
same,"Ratio Peptide:Unstimulated, caspase 8, apoptosis-related cysteine protease",AA448468,2.2
same,"Ratio Peptide:Unstimulated, growth factor receptor-bound protein 2",AA449831,2.2
same,"Ratio Peptide:Unstimulated, endothelin receptor type A",AA450009,12
same,"Ratio Peptide:Unstimulated, integrin, alpha 1",AA450324,0.41
same,"Ratio Peptide:Unstimulated, Human proteinase activated R-2",AA454652,6.1
same,"Ratio Peptide:Unstimulated, IL-11 R alpha",AA454657,2.4
same,"Ratio Peptide:Unstimulated, CSF 3 R",AA458507,1.9
same,"Ratio Peptide:Unstimulated, integrin, alpha 10",AA460959,0.33
same,"Ratio Peptide:Unstimulated, MAP kinase kinase kinase 7",AA460969,0.97
same,"Ratio Peptide:Unstimulated, NK cell R",AA463248,2.5
same,"Ratio Peptide:Unstimulated, integrin, alpha 2 (CD49B, alpha 2 subunit of VLA-2 receptor)",AA463257,0.9
same,"Ratio Peptide:Unstimulated, IL-1 receptor, type I",AA464526,0.34
same,"Ratio Peptide:Unstimulated, protein tyrosine phosphatase, receptor type, E",AA464542,0.23
same,"Ratio Peptide:Unstimulated, protein tyrosine phosphatase, receptor type, N polypeptide 2",AA464590,0.02
same,"Ratio Peptide:Unstimulated, protein tyrosine phosphatase, receptor-type, Z polypeptide 1",AA476461,0.63
same,"Ratio Peptide:Unstimulated, intercellular adhesion molecule 3",AA479188,0.12
same,"Ratio Peptide:Unstimulated, protein tyrosine phosphatase, receptor type, C-associated protein",AA481547,5.1
same,"Ratio Peptide:Unstimulated, IL-18 receptor 1",AA482489,0.50
same,"Ratio Peptide:Unstimulated, vitamin D R",AA485226,2.5
same,"Ratio Peptide:Unstimulated, integrin, beta 4",AA485668,0.8
same,"Ratio Peptide:Unstimulated, IL-10 R beta","AA486393, listed as ID 2",2.5 and 2.51
same,"Ratio Peptide:Unstimulated, calcium and integrin binding protein",AA487575,2.8
same,"Ratio Peptide:Unstimulated, TRAF and TNF receptor-associated protein",AA488650,0.75
same,"Ratio Peptide:Unstimulated, cytokine-inducible kinase",AA489234,0.41
same,"Ratio Peptide:Unstimulated, small inducible cytokine subfamily A (Cys—Cys), member 18",AA495985,0.32
same,"Ratio Peptide:Unstimulated, programmed cell death 8 (apoptosis-inducing factor)",AA496348,1.07
same,"Ratio Peptide:Unstimulated, melanoma adhesion molecule",AA497002,7.9
same,"Ratio Peptide:Unstimulated, TNF receptor-associated factor 3",AA504259,0.15
same,"Ratio Peptide:Unstimulated, apoptosis-related protein PNAS-1",AA521316,2.2
same,"Ratio Peptide:Unstimulated, complement component receptor 2",AA521362,26
same,"Ratio Peptide:Unstimulated, laminin R 1 (67 kD, ribosomal protein SA)",AA629897,0.4
same,"Ratio Peptide:Unstimulated, protein tyrosine phosphatase, receptor type, U",AA644448,6.1
same,"Ratio Peptide:Unstimulated, integrin, beta 3",AA666269,2.6
same,"Ratio Peptide:Unstimulated, regulator of G-protein signaling 5",AA668470,0.27
same,"Ratio Peptide:Unstimulated, T cell R delta locus",AA670107,2.7
same,"Ratio Peptide:Unstimulated, small inducible cytokine A3 (homologous to mouse Mip-1a)",AA677522,1.79
same,"Ratio Peptide:Unstimulated, protein tyrosine phosphatase, non-receptor type 13",AA679180,1.7
same,"Ratio Peptide:Unstimulated, protein tyrosine phosphatase, non-receptor type 3",AA682684,1.0
same,"Ratio Peptide:Unstimulated, v-SNARE R",AA704511,11
same,"Ratio Peptide:Unstimulated, adenosine A3 R",AA863086,2.0
same,"Ratio Peptide:Unstimulated, integrin, alpha 9",AA865557,0.86
same,"Ratio Peptide:Unstimulated, small inducible cytokine subfamily B (Cys-X-Cys), member 10",AA878880,0.50
same,"Ratio Peptide:Unstimulated, interleukin enhancer binding factor 2",AA894687,1.3
same,"Ratio Peptide:Unstimulated, IL-2 receptor, alpha",AA903183,0.41
same,"Ratio Peptide:Unstimulated, small inducible cytokine subfamily A (Cys—Cys), member 23",AA916836,0.38
same,"Ratio Peptide:Unstimulated, CD2","AA927710, listed as ID 2",2.6 and 2.62
same,"Ratio Peptide:Unstimulated, prostaglandin E receptor 1 (subtype EP1)",AA972293,7.2
same,"Ratio Peptide:Unstimulated, IL-12 receptor, beta 2",AA977194,0.67
same,"Ratio Peptide:Unstimulated, protein tyrosine phosphatase, non-receptor type 11",AA995560,2.9
same,"Ratio Peptide:Unstimulated, integrin beta 4 binding protein",AI017019,1.7
same,"Ratio Peptide:Unstimulated, VIP R 2",AI057229,3.1
same,"Ratio Peptide:Unstimulated, orphan seven-transmembrane receptor, chemokine related",AI131555,1.06
same,"Ratio Peptide:Unstimulated, IL-1 R antagonist homolog 1","AI167887, listed as ID 2",3086 and 3085.96
same,"Ratio Peptide:Unstimulated, MAP kinase 8 interacting protein 2",AI202738,0.16
same,"Ratio Peptide:Unstimulated, disintegrin and metalloproteinase domain 18",AI205675,0.40
same,"Ratio Peptide:Unstimulated, regulator of G-protein signaling 20",AI264190,48
